Measurements published in US8361711B2, “Tools and methods useful in characterising the immunotoxic activity of xenobiotic substances” (National Institute of Public Health and the Environment, …, priority 2004, dated 2013).

Columns and labels:
[1] = test system: IFN-γ fused to a stabile form of EGFP; assay: Clones with IFN-γ regulatory elements fused to a stabile form of EGFP; type: cell-based, mouse; conditions: all tested concentrations
Description: (§1) Samples were analyzed in an EPICS® XL-MCL Coulter flow cytometer with Expo v.2 Analysis Software/Expo32 Analysis Software (Applied Cytometry Systems, Sheffield, UK). or any other suitable flow cytometer. Viable and dead cells were gated separately and results were determined based on fluorescence associated with viable cells only. Regions were set in control cells and the same regions were used in induction controls and chemically challenged cells. Percent positive cells and fluorescence intensity were noted and used in further calculations.
(§2) Index numbers were calculated from the median fluorescence intensity of viable cells. Cells incubated in the absence or presence of ionomycin/PMA were analysed separately. Each clone incubated with or without ionomycin/PMA, but without further chemicals/compounds was defined as index number=1, and the index numbers for the other exposures were calculated from this.
(§3) One way ANOVAs (one way analysis of variance) were performed. In cases where normality failed, we used Kruskal-Wallis One Way Analysis of Variance on Ranks. If the differences between groups were statistically significant (p<0.05), we continued with tests for multiple comparisons. In normally distributed data we used Bonferroni t-test and multiple comparisons versus the control. The control was chosen to be the sample incubated in the presence or absence of ionomycin/PMA only. When normality failed we used […] for multiple comparisons versus the control.

[2] = test system: IL-2 fused to a stabile form of EGFP; assay: Clones with IL-2 regulatory elements fused to a stabile form of EGFP; type: cell-based, mouse; conditions: all tested concentrations
Description: as §1, §2, §3

[3] = test system: cell lines developed in the project
Description: The basic cytotoxicty assay employed was LDH release. Several cytotoxicity assays were performed independently in two laboratories. […] In addition, the cytotoxicity associated with the solvent was also tested to eliminate the possibility of interference in the test outcome.
Cells were plated in 24 well microtiter plates at a density of 0.5×10^6 cells/mL and with a final volume of 1.5 mL/well. Two controls were included for each cell line, in each experiment.

## CC1(C)S[C@@H]2[C@H](NC(=O)Cc3ccccc3)C(=O)N2[C@H]1C(=O)[O-].[Na+] [penicillin G, Penicillin G (Benzylpenicillin) sodium salt]
[1]; absence of ionomycin/PMA
  IFN-γ expression, stabile EGFP clone: failed to alter expression
[1]; presence of ionomycin/PMA
  IFN-γ expression, stabile EGFP clone: failed to alter expression
[2]; absence of ionomycin/PMA
  IL-2 expression, stabile EGFP clone: failed to alter expression
[2]; presence of ionomycin/PMA
  IL-2 expression, stabile EGFP clone: failed to alter expression
[3]
  toxicity (LDH-assay): did not find penicillin G to be toxic
